In one experiment the test system is calcineurin (CN). The note with it: complex with FKBP; cited from earlier work.
The next experiment has as its system FKBP. The note with it: Bierer et al., 1990; cited from earlier work.
In a further experiment the test system is CyPA. In words: Yeast GAL4 two hybrid, Gag/mutant fusions versus clone 2.1 (CyPA). Format: cell-based, Human. The note with it: versus 2.1 / CyPA. From the text: (§1) FIG. 2. The Effect of Mutations in Pr55^gag on the Ability of Gag-GAL4 Fusion Proteins to Activate β-Gal Activity in Yeast Cotransformed with GAL4-CyP Fusion Protein Expression Plasmids. Mutant forms of Pr55^gag were subcloned into pGAL4DB-HG. A schematic of the gag coding sequence is shown, and sequence numbers indicated the nucleotide position in the HXB2C provirus with respect to the 5' end of the 5' long terminal repeat. The names of the mutants indicate the nucleotide sequences deleted or the location of linker inserts. Coding sequences retained by the mutants are shown with a box. Linker insertion mutations are denoted with a triangle. Yeast strain GGY1::171, which carries a GAL1-lacZ fusion gene integrated into the chromosome, was cotransformed with each mutant plasmid against plasmid 2.1 and against plasmid 4.1. Colonies were replica-plated onto nitrocellulose filters and scored for β-gal activity by incubation with X-Gal. Open boxes or triangles indicate that when tested against either 2.1 or 4.1, the mutant had activity equivalent to that of the wild-type (WT) Pr55^gag.
(§2) To localize the portion of Gag that mediates binding to the CyPs, the effect on binding of mutations in the Pr55^gag coding sequence was examined. […] Each of these plasmids encodes a stable fusion protein of the expected size detected on Western blot (Luban et al., 1993). […]

Another experiment deals with CyPB. Kind of experiment: Yeast GAL4 two hybrid, Gag/mutant fusions versus clone 4.1 (CyPB). In kind it is cell-based, Human. The note with it: versus 4.1 / CyPB.
Source text: as §1, §2

The subject of the next experiment is T cell activation. The following applies: Sigal et al., 1991; cited from earlier work.
The next experiment deals with CyPs. The note with it: Sigal et al., 1991; cited from earlier work.
In the next experiment the test system is lymphocyte. The note with it: Viscidi et al., 1989; cited from earlier work.

Non-standard residues stand in square brackets, D forms with d. Residues, ends and D or L forms follow the SMILES beside them. ξ: configuration not given here. ξNMeBmt = C/C=C/C[C@@H](C)[C@@H](O)C(NC)C(=O)O; NMeL = CN[C@@H](CC(C)C)C(=O)O; NMeV = CN[C@H](C(=O)O)C(C)C; NMeA = CN[C@@H](C)C(=O)O; Abu = CC[C@H](N)C(=O)O; Sar = CNCC(=O)O

Regarding `C=CC[C@@H]1/C=C(\C)C[C@H](C)C[C@H](OC)[C@H]2O[C@@](O)(C(=O)C(=O)N3CCCC[C@H]3C(=O)O[C@H](/C(C)=C/[C@@H]3CC[C@@H](O)[C@H](OC)C3)[C@H](C)[C@@H](O)CC1=O)[C@H](C)C[C@@H]2OC` [FK506], in the experiment on calcineurin (CN), the “binding to and inhibiting CN phosphatase activity as FKBP complex” value was “capable of binding to and inhibiting the phosphatase activity of CN”.

On to `CO[C@H]1C[C@@H]2CC[C@@H](C)[C@@](O)(O2)C(=O)C(=O)N2CCCC[C@H]2C(=O)O[C@H]([C@H](C)C[C@@H]2CC[C@@H](O)[C@H](OC)C2)CC(=O)[C@H](C)/C=C(\C)[C@@H](O)[C@@H](OC)C(=O)[C@H](C)C[C@H](C)/C=C/C=C/C=C/1C` [Rapamycin], for which, in the experiment on FKBP, the “competition with FK506 for binding to FKBP” value was “competes with FK506 for binding to FKBP”. Further, in the experiment on calcineurin (CN), the “binding to and inhibiting CN phosphatase activity as FKBP complex” value is recorded as “not capable of binding CN”.

For the molecule “MPMV pr76^gag: Gag polyprotein of Mason-Pfizer monkey virus”, in the experiment on CyPA, the “two hybrid interaction with CyPA (in words)” value was “no detectable activity”. In addition, the “two hybrid interaction with CyPB (in words)” value with CyPB is “no detectable activity”.

As to `C/C=C/C[C@@H](C)[C@@H](O)C1C(=O)N[C@@H](CC)C(=O)N(C)CC(=O)N(C)[C@@H](CC(C)C)C(=O)N[C@@H](C(C)C)C(=O)N(C)[C@@H](C)C(=O)N[C@@H](C)C(=O)N[C@H](C)C(=O)N(C)[C@@H](CC(C)C)C(=O)N(C)[C@@H](CC(C)C)C(=O)N(C)[C@@H](C(C)C)C(=O)N1C` (stereo partly shown) [MeAla-CsA] (cyclo(A[dA][NMeL][NMeL][NMeV][ξNMeBmt][Abu][Sar][NMeL]V[NMeA])), in the experiment on T cell activation, the “suppression of T cell activation” value was “do not suppress T cell activation”. In the experiment on CyPs, the “binding to CyPs” value was “bind to CyPs”.

As to “MoMLV Pr65^gag: Gag polyprotein of Moloney murine leukemia virus”, the “two hybrid interaction with CyPA (in words)” value with CyPA is reported as “no detectable activity”. Moreover, the “two hybrid interaction with CyPB (in words)” value in the experiment with CyPB is listed as “no detectable activity”.

B1: Tat protein: Purified Tat protein (HIV-1) (protein, UniProt P04608 1-86, looked up)
Protein Tat: MEPVDPRLEPWKHPGSQPKTACTNCYCKKCCFHCQVCFITKALGISYGRKKRRQRRRAHQNSQTHQASLSKQPTSQPRGDPTGPKE
Turning to B1, in the experiment with lymphocyte, the antigen-stimulated lymphocyte proliferation entry is “inhibits”.

The record behind these values is US5773225A, “Screening method for the identification of compounds capable of abrogation HIV-1 gag-cyclophilin complex formation” (The Trustees of Columbia University in the City of New York, priority 1994, dated 1998).
